Measurements taken from patent US20260224536A1, “ARYL HETEROCYCLIC KV1.3 INHIBITOR, PREPARATION METHOD THEREFOR, AND USE THEREOF” (SHANGHAI SHENSHI WISE TECHNOLOGY CO., LTD., priority 2022, published 2026).

molecular target: Kv1.3 potassium channel (Homo sapiens, UniProt P22001); assay: Whole-cell patch-clamp assay for inhibitory activity against Kv1.3 (peak current); format: cell-based; settings: HEK293 cells stably expressing Kv1.3, patch-clamp
From the text: The voltage stimulation protocol for recording whole-cell Kv1.X potassium currents via patch-clamp was as follows. After formation of a whole-cell seal, the cell membrane voltage was clamped at −80 mV, and then stepped to +40 mV for 500 ms. […] The test data were acquired by EPC-10 amplifier (HEKA) and stored in the PatchMaster (HEKA) software. Recording electrodes were drawn from capillary glass tubes using a microelectrode puller. Under an inverted microscope, the recording electrode was brought into contact with the cell surface by manipulating a microelectrode manipulator. Negative-pressure suction was applied to form a GΩ seal. After formation of the […], a rapid capacitance compensation was given. The application of negative pressure was continued to rupture the cell membrane, forming a whole-cell recording mode. Then, a slow capacitance compensation was given, and the membrane capacitance and series resistance were recorded. No current leakage compensation was provided. Once the whole-cell recorded Kv1.X current stabilized, drug administration was started. Each drug concentration was allowed to act for 5 min (or until the current reached a steady state) before the next concentration was tested. Multiple concentrations were tested for each test compound. The cover glass plated with the cells was placed in a recording bath of the inverted microscope. The test compound and the compound-free extracellular fluid were allowed to sequentially flow through the recording bath from low concentrations to high concentrations using a gravity perfusion method, thus acting on the cells, and liquid exchange was performed using a vacuum pump during recording. For each cell, the current detected in the compound-free extracellular liquid was used as its own control group. The test was independently repeated three times using at least three cells per concentration. All electrophysiological experiments were performed at room temperature. […] First, the peak current after the action of each drug concentration and the peak current of the blank control were standardized and then the inhibition rate corresponding to each drug concentration was calculated Subsequently, the mean, standard deviation (SD), and standard error (SE) were calculated for the inhibition rate corresponding to each concentration. Using the above equation, the IC50 value for each compound was calculated, and the dose-dependent effect was subjected to non-linear fitting, where IC50 is the half maximal inhibitory concentration. The IC50 calculation and the curve fitting were performed using the GraphPad Prism software.

Kv1.3 potassium channel, sequence (P22001 whole entry): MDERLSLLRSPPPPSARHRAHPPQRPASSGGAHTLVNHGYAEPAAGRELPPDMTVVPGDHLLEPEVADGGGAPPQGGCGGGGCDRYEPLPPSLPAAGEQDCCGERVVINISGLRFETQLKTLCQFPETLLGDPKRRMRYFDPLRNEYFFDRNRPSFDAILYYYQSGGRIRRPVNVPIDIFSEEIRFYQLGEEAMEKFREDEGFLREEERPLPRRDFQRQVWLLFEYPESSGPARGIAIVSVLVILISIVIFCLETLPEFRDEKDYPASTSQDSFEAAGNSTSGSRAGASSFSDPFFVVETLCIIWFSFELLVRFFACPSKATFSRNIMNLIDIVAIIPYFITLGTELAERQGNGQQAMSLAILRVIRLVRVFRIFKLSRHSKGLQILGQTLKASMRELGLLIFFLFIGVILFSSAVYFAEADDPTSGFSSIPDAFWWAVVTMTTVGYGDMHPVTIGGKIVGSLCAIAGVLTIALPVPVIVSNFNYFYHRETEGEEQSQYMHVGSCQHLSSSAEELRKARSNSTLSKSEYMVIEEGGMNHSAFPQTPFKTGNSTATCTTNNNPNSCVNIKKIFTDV

Row | Structure (SMILES) | IC50 [nM]
1 | Cn1ccc(-c2nnc3n2C[C@H](c2c(O)ccc(Cl)c2Cl)C3)cc1=O [Example 39, (S)-4-(6-(2,3-Dichloro-6-hydroxyphenyl)-6,7-dihydro-5H-pyrrolo[2,1-c][1,2,4]triazol-3-yl)-1-methylpyidin-2(1H)-one] | 52.1
2 | Cn1cc(-c2nnc3n2C[C@H](c2c(O)ccc(Cl)c2Cl)C3)cn1 [Example 40, (S)-3,4-Dichloro-2-(3-(1-methyl-1H-pyrazol-4-yl)-6,7-dihydro-5H-pyrrolo[2,1-c][1,2,4]triazol-6-yl)phenol] | 10.6
3 | Oc1ccc(Cl)c(Cl)c1[C@@H]1Cc2nnc(-c3cccc4[nH]ncc34)n2C1 [Example 41, (S)-2-(3-(1H-Indazol-4-yl)-6,7-dihydro-5H-pyrrolo[2,1-c][1,2,4]triazol-6-yl)-3,4-dichlorophenol] | 23.8
4 | Nc1ccc(-c2nnc3n2C[C@H](c2c(O)ccc(Cl)c2Cl)C3)cn1 [Example 42, (S)-2-(3-(6-Aminopyridin-3-yl)-6,7-dihydro-5H-pyrrolo[2,1-c][1,2,4]triazol-6-yl)-3,4-dichlorophenol] | 13
5 | Nc1cc(-c2nnc3n2C[C@H](c2c(O)ccc(Cl)c2Cl)C3)ccn1 [Example 43, (S)-2-(3-(2-Aminopyridin-4-yl)-6,7-dihydro-5H-pyrrolo[2,1-c][1,2,4]triazol-6-yl)-3,4-dichlorophenol] | 19.7
6 | OCCn1cc(-c2nnc3n2C[C@H](c2c(O)ccc(Cl)c2Cl)C3)cn1 [Example 44, (S)-3,4-Dichloro-2-(3-(1-(2-hydroxyethyl)-1H-pyrazol-4-yl)-6,7-dihydro-5H-pyrrolo[2,1-c][1,2,4]triazol-6-yl)phenol] | 8.11
7 | Oc1ccc(Cl)c(Cl)c1[C@@H]1Cc2nnc(C3CNC3)n2C1 [Example 45, (S)-2-(3-(Azetidin-3-yl)-6,7-dihydro-5H-pyrrolo[2,1-c][1,2,4]triazol-6-yl)-3,4-dichlorophenol] | 1.5
8 | Oc1ccc(Cl)c(Cl)c1[C@@H]1Cc2nnc(-c3cn[nH]c3)n2C1 [Example 46, (S)-2-(3-(1H-Pyrazol-4-yl)-6,7-dihydro-5H-pyrrolo[2,1-c][1,2,4]triazol-6-yl)-3,4-dichlorophenol] | 5.12
9 | Oc1ccc(Cl)c(Cl)c1[C@@H]1Cc2nnc([C@H]3CCNC3)n2C1 [Example 47, 3,4-Dichloro-2-((S)-3-((S)-pyrrolidin-3-yl)-6,7-dihydro-5H-pyrrolo[2,1-c][1,2,4]triazol-6-yl)phenol] | 1.3
10 | Oc1ccc(Cl)c(Cl)c1[C@@H]1Cc2nnc([C@@H]3CCNC3)n2C1 [Example 48, 3,4-dichloro-2-((S)-3-((R)-pyrrolidin-3-yl)-6,7-dihydro-5H-pyrrolo[2,1-c][1,2,4]triazol-6-yl)phenol] | 8.49
11 | CN1CCC(c2nnc3n2C[C@H](c2c(O)ccc(Cl)c2Cl)C3)C1 (stereo partly drawn) [Example 49, 3,4-Dichloro-2-((6S)-3-(1-methylpyrrolidin-3-yl)-6,7-dihydro-5H-pyrrolo[2,1-c][1,2,4]triazol-6-yl)phenol] | 3.64
12 | COC(=O)N1CC[C@@H](c2nnc3n2C[C@H](c2c(O)ccc(Cl)c2Cl)C3)C1 [Example 51, methyl (R)-3-((S)-6-(2,3-dichloro-6-hydroxyphenyl)-6,7-dihydro-5H-pyrrolo[2,1-c][1,2,4]triazol-3-yl)pyrrolidine-1-carboxylate] | 7.24
13 | O=C1C[C@@H](c2nnc3n2C[C@H](c2c(O)ccc(Cl)c2Cl)C3)CN1 [Example 52, (R)-4-((S)-6-(2.3-Dichloro-6-hydroxyphenyl)-6,7-dihydro-5H-pyrrolo[2,1-c][1,2,4]triazol-3-yl)pyrrolidin-2-one] | 14
14 | Oc1ccc(Cl)c(Cl)c1[C@@H]1Cc2nnc([C@H]3CCOC3)n2C1 [Example 55, 3,4-dichloro-2-((S)-3-((R)-tetrahydrofuran-3-yl)-6,7-dihydro-5H-pyrrolo[2,1-c][1,2,4]triazol-6-yl)phenol] | 12
15 | Oc1ccc(Cl)c(Cl)c1[C@@H]1Cc2nnc([C@@H]3CCCNC3)n2C1 [Example 59, 3,4-dichloro-2-((S)-3-((R)-piperidin-3-yl)-6,7-dihydro-5H-pyrrolo[2,1-c][1,2,4]triazol-6-yl)phenol] | 2.56
16 | Oc1ccc(Cl)c(Cl)c1[C@@H]1Cc2nnc([C@H]3C[C@H]4CC[C@@H]3O4)n2C1 [Example 60, 2-((S)-3-((1S,2R,4R)-7-Oxabicyclo[2.2.1]heptan-2-yl)-6,7-dihydro-5H-pyrrolo[2,1-c][1,2,4]triazol-6-yl)-3,4-dichlorophenol] | 27.6

Row | Structure (SMILES) | IC50 [nM]
17 | Oc1ccc(Cl)c(Cl)c1[C@@H]1Cc2nnc([C@H]3C[C@@H]4CC[C@H]3O4)n2C1 [Example 62, 2-((S)-3-((1R,2R,4S)-7-Oxabicyclo[2.2.1]heptan-2-yl)-6,7-dihydro-5H-pyrrolo[2,1-c][1,2,4]triazol-6-yl)-3,4-dichlorophenol] | 16.4
18 | C[C@]1(c2nnc3n2C[C@H](c2c(O)ccc(Cl)c2Cl)C3)CCOC1 [Example 65, 3,4-dichloro-2-((S)-3-((R)-3-methyltetrahydrofuran-3-yl)-6,7-dihydro-5H-pyrrolo[2,1-c][1,2,4]triazol-6-yl)phenol] | 51.7
19 | Oc1ccc(Cl)c(Cl)c1[C@@H]1Cc2nnc(C34COC(C3)C4)n2C1 [Example 66, (S)-2-(3-(2-Oxabicyclo[2.1.1]hexan-4-yl)-6,7-dihydro-5H-pyrrolo[2,1-c][1,2,4]triazol-6-yl)-3,4-dichlorophenol] | 33.3
20 | Oc1ccc(Cl)c(Cl)c1[C@@H]1Cc2nnc(C3CCCC3)n2C1 [Example 67, (S)-3,4-Dichloro-2-(3-cyclopentyl-6,7-dihydro-5H-pyrrolo[2,1-c][1,2,4]triazol-6-yl)phenol] | 10.2
21 | Oc1ccc(Cl)c(Cl)c1[C@@H]1Cc2nnc([C@@H]3CCCOC3)n2C1 [Example 68, 3,4-Dichloro-2-((S)-3-((S)-tetrahydro-2H-pyran-3-yl)-6,7-dihydro-5H-pyrrolo[2,1-c][1,2,4]triazol-6-yl)phenol] | 16
22 | Oc1ccc(Cl)c(Cl)c1[C@@H]1Cc2nnc([C@@]34COCC3C4)n2C1 (stereo partly drawn) [Example 72, 2-((6S)-3-((1S)-3-Oxabicyclo[3.1.0]hexan-1-yl)-6,7-dihydro-5H-pyrrolo[2,1-c][1,2,4]triazol-6-yl)-3,4-dichlorophenol] | 39.1
23 | Oc1ccc(Cl)c(Cl)c1[C@@H]1Cc2nnc([C@]34COCC3C4)n2C1 (stereo partly drawn) [Example 73, 2-((6S)-3-((1R)-3-oxabicyclo[3.1.0]hexan-1-yl)-6,7-dihydro-5H-pyrrolo[2,1-c][1,2,4]triazol-6-yl)-3,4-dichlorophenol] | 24.7
24 | COc1cccc(-c2nnc3n2C[C@H](c2c(O)ccc(Cl)c2Cl)C3)c1 [Example 76, (S)-3,4-Dichloro-2-(3-(3-methoxyphenyl)-6,7-dihydro-5H-pyrrolo[2,1-c][1,2,4]triazol-6-yl)phenol] | 27.9
25 | COc1cccc(-c2nnc3n2C[C@@H](c2c(O)ccc(Cl)c2Cl)C3)c1 [Example 77, (R)-3,4-dichloro-2-(3-(3-methoxyphenyl)-6,7-dihydro-5H-pyrrolo[2,1-c][1,2,4]triazol-6-yl)phenol] | 45.2
26 | Oc1ccc(Cl)c(Cl)c1[C@@H]1Cc2nnc(C3CCN(C4CCCCC4)CC3)n2C1 [Example 78, (S)-3,4-Dichloro-2-(3-(1-cyclohexylpiperidin-4-yl)-6,7-dihydro-5H-pyrrolo[2,1-c][1,2,4]triazol-6-yl)phenol] | 12.6
27 | CC(C)N1CC[C@@H](c2nnc3n2C[C@H](c2c(O)ccc(Cl)c2Cl)C3)C1 [Example 80, 3,4-Dichloro-2-((S)-3-((R)-1-isopropylpyrrolidin-3-yl)-6,7-dihydro-5H-pyrrolo[2,1-c][1,2,4]triazol-6-yl)phenol] | 2.14
28 | CC(=O)N1CC[C@@H](c2nnc3n2C[C@H](c2c(O)ccc(Cl)c2Cl)C3)C1 [Example 81, 1-((R)-3-((S)-6-(2,3-Dichloro-6-hydroxyphenyl)-6,7-dihydro-5H-pyrrolo[2,1-c][1,2,4]triazol-3-yl)pyrrolidin-1-yl)ethan-1-one] | 11.3
29 | CC(C)N1CCC(N2CC[C@@H](c3nnc4n3C[C@H](c3c(O)ccc(Cl)c3Cl)C4)C2)CC1 [Example 82, 3,4-Dichloro-2-((S)-3-((R)-1-(1-isopropylpiperidin-4-yl)pyrrolidin-3-yl)-6,7-dihydro-5H-pyrrolo[2,1-c][1,2,4]triazol-6-yl)phenol] | 5.01
30 | Oc1ccc(Cl)c(Cl)c1[C@@H]1Cc2nnc([C@@H]3CCN(C4CCOCC4)C3)n2C1 [Example 83, 3,4-Dichloro-2-((S)-3-((R)-1-(tetrahydro-2H-pyran-4-yl)pyrrolidin-3-yl)-6,7-dihydro-5H-pyrrolo[2,1-c][1,2,4]triazol-6-yl)phenol] | 3.99
31 | Cc1cc(-c2nnc3n2C[C@H](c2c(O)ccc(Cl)c2Cl)C3)ccn1 [Example 84, (S)-3,4-Dichloro-2-(3-(2-methylpyridin-4-yl)-6,7-dihydro-5H-pyrrolo[2,1-c][1,2,4]triazol-6-yl)phenol] | 8.04
